This is an account of results in PMC6270983, “Gastroprotective Mechanisms of Action of Semisynthetic Carnosic Acid Derivatives in Human Cells” (Molecules, 2014).

The structures appear in SMILES notation.

For assay [1], the system named is human erythrocyte membranes. The assay can be described thus: Inhibition of lipoperoxidation in erythrocyte membranes. Type of assay: biochemical. The procedure:
The inhibition of lipid peroxidation was determined using human erythrocyte membranes. The products were tested at 500 µg/mL.

Another assay has as its system MRC-5 fibroblasts. The assay can be described thus: Proliferation assay of MRC-5 fibroblasts, neutral red uptake. It counts as cell-based, human. Particulars: 4 days. As for the experimental part:
Human lung fibroblasts MRC-5 (ATCC CCL-171) were grown as monolayers in minimum essential Eagle medium (MEM), with Earle’s salts, 2 mM L-glutamine and 2.2 g/L sodium bicarbonate, supplemented with 10% heat-inactivated fetal bovine serum (FBS), 100 IU/mL penicillin and 100 µg/mL streptomycin in a humidified incubator with 5% CO2 in air at 37 °C. For the subsequent experiments, cells were plated at a density of 2.5 × 10^4 cells/mL in 96-well plates.
Untreated cells were used as controls. Cell viability was determined at the end of the incubation by means of the NRU assay. The neutral red concentration was 0.05 mg/mL [4, 33].

Assay [2] deals with AGS cells. The assay can be described thus: Sodium taurocholate (NaT)-induced damage to AGS cells, viability by neutral red uptake. Particulars: 60 min pre-treatment, then 10 mM NaT 30 min.
Method: The model of AGS cells damaged by sodium taurocholate (NaT) was used to determine the gastroprotective effect of the compounds against the bile-induced injury on the gastric mucosa [10].
The effect of sodium taurocholate (NaT) on cell viability was determined according to Romano et al. [10]. […] Then, 10 mM NaT was added to all wells for 30 min. Un-treated cells were used as controls. Sucralfate (4 mg/mL) was used as reference compound. After incubation, the neutral red uptake (NRU, 0.05 mg/mL) assay was carried out to determine cell viability [4, 33].
Assay [3] relates to AGS cells. The assay can be described thus: Prostaglandin E2 (PGE2) content of AGS cells, enzyme immunoassay. Type of assay: cell-based, human.
The test system of assay [4] is AGS cells. The assay can be described thus: Cellular reduced glutathione (GSH) content in AGS cells co-incubated with 4% ethanol. It counts as cell-based, human. The following applies: 12 h; for percent increase of GSH content compared with untreated controls: AGS cells.

As to `COC(=O)[C@]12CCCC(C)(C)C1CCc1cc(C(C)C)c(OC(=O)Cc3c[nH]c4ccccc34)c(OC(=O)Cc3c[nH]c4ccccc34)c12` (stereo partly shown) [Compound 12], the “Inhibition of the lipoperoxidation, percent effect at 500 µg/mL” value (“Inhibition … percent effect at 500 µg/mL” below) in assay [1] is recorded as 38%.

For `CCCC(=O)Oc1c(C(C)C)cc2c(c1OC(=O)CCC)[C@@]1(C(=O)OC)CCCC(C)(C)C1CC2` (stereo partly shown) [Compound 7], the “stimulation of fibroblast proliferation compared to untreated controls” value in the assay on MRC-5 fibroblasts (16 µM) worked out at 8%. In addition, the “Inhibition … percent effect at 500 µg/mL” value in assay [1] is recorded as 34%.

For the compound `CCC(=O)Oc1c(C(C)C)cc2c(c1O)[C@@]1(C(=O)OC)CCCC(C)(C)C1CC2` (stereo partly shown) [Compound 6], the “Inhibition … percent effect at 500 µg/mL” value in assay [1] amounted to 42%.

Turning to `COC(=O)[C@]12CCCC(C)(C)C1CCc1cc(C(C)C)c(O)c(O)c12` (stereo partly shown) [Compound 1], the “percent cytoprotective effect compared to NaT control” value (from here on “percent cytoprotective effect”) in the assay with AGS cells [2] (3 µM) is given as 13%. Further, the “Inhibition of the lipoperoxidation, IC50” value in assay [1] is “IC50 34.4 ± 4.1 µg/mL”.

As for `CCCOc1c(OC)c(C(C)C)cc2c1[C@@]1(C(=O)OC)CCCC(C)(C)C1CC2` (stereo partly shown) [Compound 16], the “growth stimulation compared to untreated controls” value worked out at 8% in the assay on MRC-5 fibroblasts (12 µM) and 18% in the assay on MRC-5 fibroblasts (24 µM). In addition, the “Inhibition … percent effect at 500 µg/mL” value in assay [1] is 46%.

Regarding `CC(=O)Oc1c(C(C)C)cc2c(c1OC(C)=O)[C@@]1(C(=O)O)CCCC(C)(C)C1CC2` (stereo partly shown) [Compound 3], the “percent cytoprotective effect” value is on record as 13% in the assay on AGS cells [2] (10.5 µM), 15% in the assay on AGS cells [2] (21 µM) and 13% with AGS cells [2] (42 µM). Further, the “Inhibition … percent effect at 500 µg/mL” value in assay [1] is given as 11%.

With `COc1ccc2c(c1)c(CC(=O)O)c(C)n2C(=O)c1ccc(Cl)cc1` [Indomethacin, reference compound], the “PGE2” value in the assay on AGS cells [3] (100 µM, 1 h, control 24.9 ± 2.1) was determined as 8.5 ± 1.3 pg/mL.

Consider `COC(=O)[C@]12CCCC(C)(C)C1CCc1cc(C(C)C)c(OC(=O)c3ccccc3)c(OC(=O)c3ccccc3)c12` (stereo partly shown) [Compound 9], for which the “Inhibition of the lipoperoxidation, IC50” value in assay [1] is given as “IC50 147.2 ± 16.6 µg/mL”.

Take `COC(=O)[C@]12CCCC(C)(C)C1CCc1cc(C(C)C)c(OC(=O)c3cccnc3)c(OC(=O)c3cccnc3)c12` (stereo partly shown) [Compound 10, 11,12-O-dinicotinylmethylcarnosate]: the “Inhibition … percent effect at 500 µg/mL” value in assay [1] worked out at 22%. For the same compound, the “percent increase of GSH content compared with untreated controls” value (from here on “percent increase of GSH content”) with AGS cells [4] (1.4 µM) worked out at 14%.

`COC(=O)[C@]12CCCC(C)(C)C1CCc1cc(C(C)C)c(OC(=O)Cc3ccccc3)c(OC(=O)Cc3ccccc3)c12` (stereo partly shown) [Compound 11]: in the assay with AGS cells [2] (62.5 µM), the “percent cytoprotective effect” value is given as 12%. The “Inhibition of the lipoperoxidation, IC50” value in assay [1] is “IC50 140.4 ± 12.6 µg/mL”.

`COC(=O)[C@]12CCCC(C)(C)C1CCc1cc(C(C)C)c(OC)c(O)c12` (stereo partly shown) [Compound 15, 12-O-metylmethylcarnosate]: the “Inhibition of the lipoperoxidation, IC50” value in assay [1] is “IC50 165.0 ± 14.9 µg/mL”. The “percent increase of GSH content” value in the assay with AGS cells [4] (4.5 µM) amounted to 11%.

In the case of `COC(=O)[C@]12CCCC(C)(C)C1CCc1cc(C(C)C)c(OC)c(OC)c12` (stereo partly shown) [Compound 2], the “Inhibition … percent effect at 500 µg/mL” value in assay [1] amounted to 53%.

As to `COC(=O)[C@]12CCCC(C)(C)C1CCc1cc(C(C)C)c(OC(=O)C(C)C)c(O)c12` (stereo partly shown) [Compound 8], the “Inhibition of the lipoperoxidation, IC50” value in assay [1] was “IC50 13.6 ± 1.48 µg/mL”.

Turning to `COC(=O)[C@]12CCCC(C)(C)C1CCc1cc(C(C)C)c(OC(=O)CCl)c(OC(=O)CCl)c12` (stereo partly shown) [Compound 5], the “percent cytoprotective effect” value with AGS cells [2] (1.1 µM) was 17%; in the assay with AGS cells [2] (2.3 µM), 15%; with AGS cells [2] (4.5 µM), 8%. Besides, the “Inhibition of the lipoperoxidation, IC50” value in assay [1] was “IC50 27.6 ± 3.0 µg/mL”.

In the case of `CC(=O)N[C@@H](CS)C(=O)O` [NAC, N-acetyl-L-cysteine, reference compound], the “GSH (nmol/10^6 cells)” value in the assay with AGS cells [4] (750 µM, control 3.6 ± 0.2) is 4.0 ± 0.2 nmol/10^6 cells. Also, the “percent increase of GSH content” value in the assay on AGS cells [4] (750 µM) stood at 11%.

On to `COc1c(C(C)C)cc2c(c1O)[C@@]1(C(=O)O)CCCC(C)(C)C1CC2` (stereo partly shown) [Compound 14, 12-O-methylcarnosic acid], for which the entries for the “percent cytoprotective effect” value with AGS cells [2] (2.8 µM) and in the assay with AGS cells [2] (5.6 µM) were 12% and 5%, respectively. Also, the “Inhibition of the lipoperoxidation, IC50” value in assay [1] was “IC50 186.3 ± 16.9 µg/mL”. Besides, in the assay on AGS cells [4] (2.3 µM), the “percent increase of GSH content” value is recorded as 8%.

Turning to `O.Oc1cc(O)c2c(c1)O[C@H](c1ccc(O)c(O)c1)[C@@H](O)C2` [Catechin, reference compound], the “Inhibition of the lipoperoxidation, IC50” value in assay [1] is recorded as “IC50 75.4 ± 6.0 µg/mL”.

For the compound `CCCOC(=O)[C@]12CCCC(C)(C)C1CCc1cc(C(C)C)c(OC)c(OCCC)c12` (stereo partly shown) [Compound 18], the figures for the “stimulation of fibroblast proliferation compared to untreated controls” value in the assay with MRC-5 fibroblasts (32 µM) and in the assay on MRC-5 fibroblasts (63 µM) were 16% and 22%, respectively.

As for `CC(C)c1cc2c(c(O)c1O)[C@@]1(C(=O)O)CCCC(C)(C)[C@@H]1CC2` [CA, Carnosic acid], the “percent cytoprotective effect” value is 23% in the assay on AGS cells [2] (6 µM) and 22% in the assay with AGS cells [2] (12 µM). For the same compound, in assay [1], the “Inhibition of the lipoperoxidation, IC50” value is “IC50 2.4 ± 0.18 µg/mL”. For the same compound, the “percent increase of GSH content” value in the assay with AGS cells [4] (4.5 µM) turned out to be 19%.

In the case of `COC(=O)[C@]12CCCC(C)(C)C1CCc1cc(C(C)C)c(OC)c(OC(C)=O)c12` (stereo partly shown) [Compound 17], in the assay with MRC-5 fibroblasts (23 µM), the “stimulation of fibroblast proliferation compared to untreated controls” value is listed as 7%.

Take `COC(=O)[C@]12CCCC(C)(C)C1CCc1cc(C(C)C)c(OC(=O)CCCc3c[nH]c4ccccc34)c(O)c12` (stereo partly shown) [Compound 13, 12-O-indolebutyrylmethylcarnosate]: the “percent cytoprotective effect” value in the assay with AGS cells [2] (2.5 µM) is recorded as 12%; in the assay on AGS cells [2] (5 µM), 8%. In addition, the “increase of PGE2 content compared to controls” value in the assay with AGS cells [3] (20 µM, AGS cells) came to 2.7 fold. Moreover, the “Inhibition … percent effect at 500 µg/mL” value in assay [1] turned out to be 49%. In the assay on AGS cells [4] (2.0 µM), the “percent increase of GSH content” value was determined as 11%.
